Where a name gives a salt, the structure may show the parent alone.
What was measured:
human FAAH-1 = target: T1, human FAAH-1 (Homo sapiens, UniProt O00519); assay: Human recombinant Fatty Acid Amide Hydrolase-1 (FAAH-1) fluorescent assay, Hek293-hFAAH-1 membranes; type: biochemical; conditions: 3 separate experiments, each in triplicate
T1 construct: expressed in transfected cells; host or cells: Hek293 cells stably transfected with human FAAH-1; membrane preparation
T1 sequence (O00519 1-579): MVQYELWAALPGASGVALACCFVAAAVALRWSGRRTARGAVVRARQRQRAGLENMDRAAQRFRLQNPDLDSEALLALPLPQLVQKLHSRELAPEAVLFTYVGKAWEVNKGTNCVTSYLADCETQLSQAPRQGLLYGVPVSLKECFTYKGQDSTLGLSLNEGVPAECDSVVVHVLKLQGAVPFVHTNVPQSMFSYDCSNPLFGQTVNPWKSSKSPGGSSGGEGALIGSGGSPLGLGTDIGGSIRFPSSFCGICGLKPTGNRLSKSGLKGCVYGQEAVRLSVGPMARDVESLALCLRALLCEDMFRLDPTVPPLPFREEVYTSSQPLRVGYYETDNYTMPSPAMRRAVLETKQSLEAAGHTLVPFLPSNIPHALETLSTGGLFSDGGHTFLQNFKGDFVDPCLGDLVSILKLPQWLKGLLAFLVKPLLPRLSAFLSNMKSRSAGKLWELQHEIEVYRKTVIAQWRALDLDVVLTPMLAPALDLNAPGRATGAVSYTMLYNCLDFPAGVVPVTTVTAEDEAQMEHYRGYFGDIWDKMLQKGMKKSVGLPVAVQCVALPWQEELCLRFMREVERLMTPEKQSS
Description: Human Recombinant Fatty Acid Amide Hydrolase-1 (FAAH-1) Fluorescent Assay
Hek293 cells stably transfected with human FAAH-1 were maintained in DMEM containing 10% FBS, 1% pen/strep and 500 μg/mL G418 to maintain selective pressure. Cells were scraped off with cold PBS1× pH7.4 from plates and collected by centrifugation (500 g, 10 minutes, 4° C.); cells pellets were re-suspended in homogenizing buffer (20 mM Tris-HCl pH7.4, 0.32M sucrose), disrupted by sonication (10 pulses, 5 times) and centrifuged at 800×g for 15 minutes at 4° C.; the resultant supernatants collected were then centrifuged at 105,000×g for 1 hr at 4° C. and membranes pellets were re-suspended in PBS1× pH7.4.
Protein concentration was measured and samples aliquot stored at −80° C. until use.
The blank (no activity) was prepared using 180 μL of assay buffer without Hek293-hFAAH-1 membrane preparation and 10 μL of DMSO.
After 50 minutes of pre-incubation of compounds with the enzyme at 37° C., the reaction was started by the addition of 10 μL of substrate (AMC Arachidonyl Amide, N.10005098, Cayman Chemical) for 30 min at 37° C. The substrate is prepared in Ethanol in order to achieve the final concentration of 2 μM.
Fluorescence was detected with Tecan Infinite M200 nanoquant (Tecan Group Ltd.) at an excitation wavelength 350 nm and an emission wavelength 460 nm.
(§1) EC50 or IC50 values (concentrations causing half-maximal response or inhibition of control agonist response) were determined by non-linear regression analysis of the Log [concentration]/response curves generated with mean replicate values using a four parameter Hill equation curve fitting with GraphPad Prism 5 (GraphPad Software Inc., CA—USA).

human-D3R = target: T2, human-D3R (Homo sapiens, UniProt P35462); assay: D3 Dopamine Receptor (D3dR) cellular assay, cAMP HTRF functional assay in human-D3R expressing CHO cells; type: cell-based; conditions: for Emax: CHO, 0.5 h, % of 300 nM Dopamine response, read-out: Dopamine D3 % of Agonist Activity; for EC50: cAMP assay, CHO human-D3R, one experiment in duplicate
T2 construct: expressed in transfected cells; host or cells: CHO cell line stably transfected with human D3R
Description: D3 Dopamine Receptor (D3dR) Cellular Assay
Activity on D3R was tested with a cAMP functional assay on a stably transfected human-D3R expressing CHO cell line. On the day of the assay performance the cells were washed twice with PBS (w/o calcium and magnesium) and dislodged with a cell scraper, transferred to PBS, centrifuged and re-suspended in HBSS (w/o calcium and magnesium), supplemented with 1 g/L glucose and […] IBMX. The cell suspension was seeded on a 384 well plate (Greiner) and the assay was performed by adding compounds either test compounds alone (for agonist activity), or with test compound after a pre-incubation with 10 nM Dopamine as a stimulant (for antagonistic activity). After incubation (30 min at RT) the cell stimulation was stopped by adding the detecting reagents (cAMP-XL665 and anti-cAMP cryptate) diluted in lysis buffer. The signal was quantified by Homogenous Time-Resolved Fluorescence (HTRF) on a Perkin Elmer Envision plate reader after one hour of incubation at RT.
as §1

T2 sequence (P35462 whole entry): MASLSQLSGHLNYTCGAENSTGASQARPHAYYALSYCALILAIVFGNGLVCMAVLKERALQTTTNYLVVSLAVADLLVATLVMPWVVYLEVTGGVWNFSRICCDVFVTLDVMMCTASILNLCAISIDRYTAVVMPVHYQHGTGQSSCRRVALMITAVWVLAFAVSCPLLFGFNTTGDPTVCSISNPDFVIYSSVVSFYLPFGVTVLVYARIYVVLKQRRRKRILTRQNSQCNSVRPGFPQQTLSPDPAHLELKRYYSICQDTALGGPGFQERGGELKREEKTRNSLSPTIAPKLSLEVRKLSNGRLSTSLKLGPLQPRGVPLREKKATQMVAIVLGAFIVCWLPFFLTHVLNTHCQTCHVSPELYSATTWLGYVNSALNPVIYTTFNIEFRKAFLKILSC

| SMILES | IC50 (human FAAH-1) | Emax (human-D3R) | EC50 (human-D3R) |
| --- | --- | --- | --- |
| O=C(NCCCCN1CCN(c2cccc(Cl)c2Cl)CC1)Oc1cccc(N2CCOCC2)c1 [Example 8, (3-morpholinophenyl) N-[4-[4-(2,3-dichlorophenyl)piperazin-1-yl]butyl] carbamate hydrochloride] | 3.4 nM | 83% | 35 nM |
| O=C(NCCCCN1CCN(c2cccc(Cl)c2Cl)CC1)Oc1cccc(N2CCC(F)(F)CC2)c1 [Example 9, [3-(4,4-difluoro-1-piperidinyl)phenyl] N-[4-[4-(2,3-dichlorophenyl)piperazin-1-yl]butyl]carbamate hydrochloride] | 17 nM | 54.7% | 9.2 nM |
| O=C(NCCCCN1CCN(c2cccc(Cl)c2Cl)CC1)Oc1ccc(N2CCC(F)(F)CC2)cc1 [Example 12, [4-(4,4-difluoro-1-piperidinyl)phenyl] N-[4-[4-(2,3-dichlorophenyl)piperazin-1-yl]butyl]carbamate hydrochloride] | 9.9 nM | 90.7% | 49 nM |
| Cc1ccccc1N1CCN(CCCNC(=O)Oc2cccc(N3CCOCC3)c2)CC1 [Example 13, (3-morpholino phenyl) N-[3-[4-(o-tolyl)piperazin-1-yl]propyl]carbamate hydrochloride] | 4.4 nM | 59.4% | 150 nM |
| NC(=O)c1cccc(-c2cccc(OC(=O)NCCCCN3CCC(c4ccccc4)CC3)c2)c1 [Example 14, [3-(3-carbamoylphenyl)phenyl] N-[4-(4-phenyl-1-piperidinyl)butyl]carbamate hydrochloride] | 9.6 nM | 74.3% | 36 nM |
| Cc1ccccc1N1CCN(CCCNC(=O)Oc2ccc(-c3ccccc3)cc2)CC1 [Example 15, (4-phenylphenyl) N-[3-[4-(o-tolyl)piperazin-1-yl]propyl]carbamate] | 4.1 nM | 82% | 290 nM |
| O=C(NCCCN1CCN(c2ccccc2C(F)(F)F)CC1)Oc1ccc(-c2ccccc2)cc1 [Example 16, (4-phenylphenyl) N-[3-[4-[2-(trifluoromethyl)phenyl]piperazin-1-yl]propyl] carbamate] | 12 nM | 95.4% | 300 nM |
| O=C(NCCCN1CCN(c2cccc(Cl)c2Cl)CC1)Oc1ccc2c(c1)[nH]c1ccccc12 [Example 17, 9H-carbazol-2-yl N-[3-[4-(2,3-dichlorophenyl)piperazin-1-yl]propyl]carbamate] | 4.8 nM | 91% | 150 nM |
| O=C(NCCCN1CCN(c2ccccc2C(F)(F)F)CC1)Oc1ccc(N2CCC(F)(F)CC2)cc1 [Example 18, [4-(4,4-difluoro-1-piperidinyl)phenyl] N-[3-[4-[2-(trifluoromethyl)phenyl]piperazin-1-yl]propyl]carbamate hydrochloride] | 28 nM | 86% | 190 nM |
| NC(=O)c1cccc(-c2ccc(OC(=O)NCCCCN3CCN(c4cccc(Cl)c4Cl)CC3)cc2F)c1 [Example 21, [4-(3-carbamoylphenyl)-3-fluoro-phenyl] N-[4-[4-(2,3-dichlorophenyl)piperazin-1-yl]butyl]carbamate] | 0.96 nM | 69.4% | – |
| O=C(NCCCCN1CCN(c2cccc(Cl)c2Cl)CC1)Oc1ccc(-c2ccccn2)cc1 [Example 24, [4-(2-pyridyl)phenyl] N-[4-[4-(2,3-dichlorophenyl)piperazin-1-yl]butyl]carbamate] | 0.21 nM | 70.4% | 5.92 nM |
| NC(=O)c1cccc(-c2ccc(OC(=O)NCCCCN3CCN(c4ccccc4)CC3)cc2)c1 [Example 25, [4-(3-carbamoylphenyl)phenyl] N-[4-(4-phenylpiperazin-1-yl)butyl]carbamate] | 3.5 nM | 87.5% | 3.6 nM |
| O=C(NCCCCN1CCN(c2cccc(Cl)c2Cl)CC1)Oc1ccc2c(c1)[nH]c1ccccc12 [Example 28, 9H-carbazol-2-yl N-[4-[4-(2,3-dichlorophenyl)piperazin-1-yl]butyl]carbamate] | 8 nM | 89.7% | 120 nM |
| COc1ccccc1N1CCN(CCCCNC(=O)Oc2ccc3c(c2)[nH]c2ccccc23)CC1 [Example 33, 9H-carbazol-2-yl N-[4-[4-(2-methoxyphenyl)piperazin-1-yl]butyl]carbamate] | 37 nM | 65.9% | 12 nM |
| O=C(NCCC(F)CN1CCN(c2cccc(Cl)c2Cl)CC1)Oc1ccc(-c2ccccc2)cc1 (centres unmarked) [Example 36, (4-phenylphenyl) N-[4-[4-(2,3-dichlorophenyl)piperazin-1-yl]-3-fluoro-butyl] carbamate] | 1.3 nM | 87.6% | 150 nM |
| COc1cc(OC(=O)NCCCN2CCN(c3ccccc3OC)CC2)ccc1-c1ccccc1 [Example 37, (3-methoxy-4-phenyl-phenyl) N-[3-[4-(2-methoxyphenyl)piperazin-1-yl]propyl] carbamate hydrochloride] | 7.8 nM | 73.5% | 38 nM |
| O=C(NCC(CF)N1CCN(c2cccc(Cl)c2Cl)CC1)Oc1ccc(-c2ccccc2)cc1 (centres unmarked) [Example 41, (4-phenylphenyl) N-[2-[4-(2,3-dichlorophenyl)piperazin-1-yl]-3-fluoro-propyl] carbamate hydrochloride] | 9.9 nM | – | – |
| COc1ccccc1N1CCN(CCCNC(=O)Oc2ccc(Cc3ccccc3)cc2)CC1 [Example 43, (4-benzylphenyl) N-[3-[4-(2-methoxyphenyl)piperazin-1-yl]propyl]carbamate hydrochloride] | 18 nM | – | – |
| COc1ccccc1N1CCN(CCCNC(=O)Oc2ccc(C(=O)c3ccccc3)cc2)CC1 [Example 44, (4-benzoylphenyl) N-[3-[4-(2-methoxyphenyl)piperazin-1-yl]propyl]carbamate hydrochloride] | 11 nM | – | – |
| COc1ccccc1N1CCN(CCCCNC(=O)Oc2ccc(C(=O)c3ccccc3)cc2)CC1 [Example 45, (4-benzoylphenyl) N-[4-[4-(2-methoxyphenyl)piperazin-1-yl]butyl]carbamate hydrochloride] | 5.3 nM | 51.4% | 29 nM |
